Laboratory results from patent US9278963B2, “Pyrimidine hydroxy amide compounds as histone deacetylase inhibitors” (Acetylon Pharmaceuticals, Inc., priority 2013, dated 2016).

Tests used:
Format in all cases: biochemical
HDAC6 = HDAC6 (Homo sapiens (Human), UniProt Q9UBN7); assay: HDAC enzyme assay, HDAC6
Method: (§1) Compounds for testing were diluted in DMSO to 50 fold the final concentration and a ten point three fold dilution series was made. The compounds were diluted in assay buffer (50 mM HEPES, pH 7.4, 100 mM KCl, 0.001% Tween-20, 0.05% BSA, 20 μM TCEP) to 6 fold their final concentration. The HDAC enzymes (purchased from BPS Biosciences) were diluted to 1.5 fold their final concentration in assay buffer. The tripeptide substrate and trypsin at 0.05 μM final concentration were diluted in assay buffer at 6 fold their final concentration. The final enzyme concentrations used in these assays were 3.3 ng/ml (HDAC1), 0.2 ng/ml (HDAC2), 0.08 ng/ml (HDAC3) and 2 ng/ml (HDAC6). The final substrate concentrations used were 16 μM (HDAC1), 10 μM (HDAC2), 17 μM (HDAC3) and 14 μM (HDAC6).
(§2) Five μl of compounds and 20 μl of enzyme were added to wells of a black, opaque 384 well plate in duplicate. Enzyme and compound were incubated together at room temperature for 10 minutes. Five μ1 of substrate was added to each well, the plate was shaken for 60 seconds and placed into a Victor 2 microtiter plate reader. The development of fluorescence was monitored for 60 min and the linear rate of the reaction was calculated. The IC50 was determined using Graph Pad Prism by a four parameter curve fit. The IC50 values obtained for several of the compounds of this invention are found in Table 1.

HDAC1 = HDAC1 (Homo sapiens (Human), UniProt Q13547); assay: HDAC enzyme assay, HDAC1
Method: as §1
as §2, with “fit.” for “fit. The IC50 values obtained for several of the compounds of this invention are found in Table 1.”

HDAC2 = HDAC2 (Homo sapiens (Human), UniProt Q92769); assay: HDAC enzyme assay, HDAC2
Method: as §1
as §2, with “fit.” for “fit. The IC50 values obtained for several of the compounds of this invention are found in Table 1.”

HDAC3 = HDAC3 (Homo sapiens (Human), UniProt O15379); assay: HDAC enzyme assay, HDAC3
Method: as §1, with “The HDAC enzymes (purchased from BPS Biosciences) were diluted to 1.5 fold their final concentration in assay buffer.” left out, “(HDAC6).” for “(HDAC6). The final substrate concentrations used were 16 μM (HDAC1), 10 μM (HDAC2), 17 μM (HDAC3) and 14 μM (HDAC6).”
as §2, with “fit.” for “fit. The IC50 values obtained for several of the compounds of this invention are found in Table 1.”

Chain of HDAC3 (O15379 whole entry): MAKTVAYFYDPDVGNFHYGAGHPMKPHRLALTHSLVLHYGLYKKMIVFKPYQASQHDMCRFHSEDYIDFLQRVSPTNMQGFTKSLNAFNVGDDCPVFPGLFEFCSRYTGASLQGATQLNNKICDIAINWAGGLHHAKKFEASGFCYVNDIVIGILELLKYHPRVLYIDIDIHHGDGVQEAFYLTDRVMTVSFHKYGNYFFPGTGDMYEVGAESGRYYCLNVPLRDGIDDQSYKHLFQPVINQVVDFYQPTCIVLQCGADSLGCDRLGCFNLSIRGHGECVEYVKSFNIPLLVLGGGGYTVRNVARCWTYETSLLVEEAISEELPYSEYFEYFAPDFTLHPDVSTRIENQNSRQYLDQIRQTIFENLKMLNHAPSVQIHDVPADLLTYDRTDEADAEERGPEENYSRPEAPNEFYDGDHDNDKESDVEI
Chain of HDAC3 (Q9Y618 395-489 partner): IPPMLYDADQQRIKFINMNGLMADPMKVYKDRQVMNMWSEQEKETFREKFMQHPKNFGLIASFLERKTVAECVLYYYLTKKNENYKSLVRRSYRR
Chain of HDAC1 (Q13547 whole entry): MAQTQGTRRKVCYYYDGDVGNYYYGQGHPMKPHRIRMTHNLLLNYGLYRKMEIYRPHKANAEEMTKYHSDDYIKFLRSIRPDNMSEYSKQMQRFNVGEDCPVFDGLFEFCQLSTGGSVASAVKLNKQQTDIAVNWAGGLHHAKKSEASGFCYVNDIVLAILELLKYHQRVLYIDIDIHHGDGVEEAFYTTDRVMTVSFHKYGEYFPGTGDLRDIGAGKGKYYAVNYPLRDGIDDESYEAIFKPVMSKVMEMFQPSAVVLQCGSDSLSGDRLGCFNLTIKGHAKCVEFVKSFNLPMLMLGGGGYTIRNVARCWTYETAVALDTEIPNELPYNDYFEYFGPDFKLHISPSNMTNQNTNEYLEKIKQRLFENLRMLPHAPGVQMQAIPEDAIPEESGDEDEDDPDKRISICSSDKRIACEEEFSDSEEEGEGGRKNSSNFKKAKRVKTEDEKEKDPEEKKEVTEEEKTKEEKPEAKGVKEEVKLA
Chain of HDAC6 (Q9UBN7 whole entry): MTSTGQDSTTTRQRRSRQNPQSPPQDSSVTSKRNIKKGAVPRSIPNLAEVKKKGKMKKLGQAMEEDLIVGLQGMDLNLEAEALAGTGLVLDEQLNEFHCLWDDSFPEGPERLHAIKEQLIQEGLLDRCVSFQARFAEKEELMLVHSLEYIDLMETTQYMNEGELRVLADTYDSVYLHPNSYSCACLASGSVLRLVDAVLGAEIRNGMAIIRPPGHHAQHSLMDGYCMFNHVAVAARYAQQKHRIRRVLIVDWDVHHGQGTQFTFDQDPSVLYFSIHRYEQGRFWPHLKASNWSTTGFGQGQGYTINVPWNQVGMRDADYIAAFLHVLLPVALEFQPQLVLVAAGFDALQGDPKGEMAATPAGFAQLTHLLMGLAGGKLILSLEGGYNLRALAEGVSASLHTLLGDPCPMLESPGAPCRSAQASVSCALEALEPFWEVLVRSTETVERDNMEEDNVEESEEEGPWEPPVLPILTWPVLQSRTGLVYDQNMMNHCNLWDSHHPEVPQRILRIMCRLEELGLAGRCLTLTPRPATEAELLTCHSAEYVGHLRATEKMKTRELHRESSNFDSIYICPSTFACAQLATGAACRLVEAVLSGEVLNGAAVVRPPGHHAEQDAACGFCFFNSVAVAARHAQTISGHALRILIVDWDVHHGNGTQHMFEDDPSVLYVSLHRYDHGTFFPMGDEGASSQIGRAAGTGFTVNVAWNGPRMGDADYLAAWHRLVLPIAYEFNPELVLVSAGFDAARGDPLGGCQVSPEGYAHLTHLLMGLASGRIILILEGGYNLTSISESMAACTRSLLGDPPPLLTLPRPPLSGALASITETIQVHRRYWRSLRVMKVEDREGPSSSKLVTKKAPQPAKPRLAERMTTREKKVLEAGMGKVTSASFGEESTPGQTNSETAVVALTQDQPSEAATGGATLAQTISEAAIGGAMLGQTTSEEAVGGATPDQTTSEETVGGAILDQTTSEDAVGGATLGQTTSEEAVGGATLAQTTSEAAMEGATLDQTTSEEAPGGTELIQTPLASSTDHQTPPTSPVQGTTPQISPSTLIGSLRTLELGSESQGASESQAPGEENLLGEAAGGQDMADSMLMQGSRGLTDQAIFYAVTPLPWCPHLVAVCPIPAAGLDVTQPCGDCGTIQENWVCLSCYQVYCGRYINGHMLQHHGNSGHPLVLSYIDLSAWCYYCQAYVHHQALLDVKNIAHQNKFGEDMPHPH
Chain of HDAC2 (Q92769 whole entry): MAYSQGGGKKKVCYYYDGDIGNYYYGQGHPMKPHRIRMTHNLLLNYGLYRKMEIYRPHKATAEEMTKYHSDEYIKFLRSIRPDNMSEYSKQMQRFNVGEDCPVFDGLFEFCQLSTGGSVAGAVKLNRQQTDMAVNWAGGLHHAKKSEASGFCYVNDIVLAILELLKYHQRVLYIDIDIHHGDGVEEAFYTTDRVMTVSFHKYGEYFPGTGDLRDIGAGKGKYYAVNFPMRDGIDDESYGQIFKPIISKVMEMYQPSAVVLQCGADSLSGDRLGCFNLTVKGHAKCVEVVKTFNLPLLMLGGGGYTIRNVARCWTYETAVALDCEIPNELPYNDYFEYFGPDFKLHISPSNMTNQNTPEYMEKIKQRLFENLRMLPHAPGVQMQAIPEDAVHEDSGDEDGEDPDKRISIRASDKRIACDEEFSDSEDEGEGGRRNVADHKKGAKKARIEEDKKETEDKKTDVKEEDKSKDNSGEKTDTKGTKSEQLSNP

SMILES | IC50 (HDAC6) | IC50 (HDAC1) | IC50 (HDAC2) | IC50 (HDAC3)
O=C(NO)c1cnc(NC2(c3ccccc3)CCN(C(=O)OCc3ccccc3)CC2)nc1 [Compound 002, benzyl 4-((5-(hydroxycarbamoyl)pyrimidin-2-yl)amino)-4-phenylpiperidine-1-carboxylate] | 2.6 nM | 1010 nM | 983 nM | 1640 nM
CC(=O)N1CCC(Nc2ncc(C(=O)NO)cn2)(c2ccccc2)CC1 [Compound 003, 2-((1-acetyl-4-phenylpiperidin-4-yl)amino)-N-hydroxypyrimidine-5-carboxamide] | 1.6 nM | 346 nM | 254 nM | 840 nM
CCOC(=O)N1CCC(Nc2ncc(C(=O)NO)cn2)(c2ccccc2)CC1 [Compound 004, ethyl 4-((5-(hydroxycarbamoyl)pyrimidin-2-yl)amino)-4-phenylpiperidine-1-carboxylate] | 2.9 nM | 275 nM | 321 nM | 1000 nM
CC(=O)N1CCC(Nc2ncc(C(=O)NO)cn2)(C(C)C)CC1 [Compound 005, 2-((1-acetyl-4-isopropylpiperidin-4-yl)amino)-N-hydroxypyrimidine-5-carboxamide] | 5.9 nM | 1830 nM | 2390 nM | 8180 nM
CCOC(=O)N1CCC(Nc2ncc(C(=O)NO)cn2)(C(C)C)CC1 [Compound 006, ethyl 4-((5-(hydroxycarbamoyl)pyrimidin-2-yl)amino)-4-isopropylpiperidine-1-carboxylate] | 4 nM | 697 nM | 809 nM | 3780 nM
CC(C)C1(Nc2ncc(C(=O)NO)cn2)CCN(C(=O)OCc2ccccc2)CC1 [Compound 007, benzyl 4-((5-(hydroxycarbamoyl)pyrimidin-2-yl)amino)-4-isopropylpiperidine-1-carboxylate] | 5.1 nM | 119 nM | 121 nM | 879 nM

Now from value to compound:

IC50 (HDAC6) | IC50 (HDAC1) | IC50 (HDAC2) | IC50 (HDAC3) | SMILES
13 nM | 20 nM | 18 nM | 84 nM | CC(C)[C@@H](C(=O)N1CCC(Nc2ncc(C(=O)NO)cn2)(c2ccccc2)CC1)c1ccccc1 (stereo in doubt) [Compound 025, N-hydroxy-2-((1-(3-methyl-2-phenylbutanoyl)-4-phenylpiperidin-4-yl)amino)pyrimidine-5-carboxamide]
5 nM | 206 nM | 173 nM | 1100 nM | CC(C)[C@H](C(=O)N1CCC(Nc2ncc(C(=O)NO)cn2)(c2ccccc2)CC1)c1ccccc1 (stereo in doubt) [Compound 026, N-hydroxy-2-((1-(3-methyl-2-phenylbutanoyl)-4-phenylpiperidin-4-yl)amino)pyrimidine-5-carboxamide]
11 nM | 102 nM | 93 nM | 914 nM | CC(C)C[C@H](C(=O)N1CCC(Nc2ncc(C(=O)NO)cn2)(c2ccccc2)CC1)c1ccccc1 (stereo in doubt) [Compound 029, N-hydroxy-2-((1-(4-methyl-2-phenylpentanoyl)-4-phenylpiperidin-4-yl)amino)pyrimidine-5-carboxamide]
12 nM | 23 nM | 22 nM | 114 nM | CC(C)C[C@@H](C(=O)N1CCC(Nc2ncc(C(=O)NO)cn2)(c2ccccc2)CC1)c1ccccc1 (stereo in doubt) [Compound 030, N-hydroxy-2-((1-(4-methyl-2-phenylpentanoyl)-4-phenylpiperidin-4-yl)amino)pyrimidine-5-carboxamide]
1.5 nM | 21 nM | 24 nM | 546 nM | COc1ccc(NC(=O)N2CCC(Nc3ncc(C(=O)NO)cn3)(c3ccccc3)CC2)cc1 [Compound 008, N-hydroxy-2-((1-((4-methoxyphenyl)carbamoyl)-4-phenylpiperidin-4-yl)amino)pyrimidine-5-carboxamide]
